Activity calls are given as the source filed them.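 How the source made its calls: active means fitted half-maximal concentration below 30 µM for cell fluorescence in pump-free yeast, so likely self-fluorescent; inactive means the rest.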
Assay: concentration-dependent intrinsic compound fluorescence, S. cerevisiae AD/pABC3, flow cytometry, Cherry Pick1 hits, artefact control for antifungal efflux pump inhibitor project, dose response (AID 588620);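 further: red emission of unstained cells excited at 488 nm measured in PE-Texas Red channel; cell median fluorescence as percent of DMSO wells so 100% equals vehicle baseline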
Conditions: S. cerevisiae AD/pABC3 compound autofluorescence, flow cytometry; at 33.1 µM (top of the series)

| Compound | fluorescence response, % of control |
| --- | --- |
| COc1ccc2nc(C)cc(Sc3nc4ccccc4s3)c2c1 | 100% (inactive) |
| COc1ccccc1-c1sc2cc3c(cc2c1-c1ccc(OCCN2CCOCC2)cc1)OCO3 | 87.6% (inactive) |
| c1ccc(-c2ccc3c(c2)c2c4n3CCN=C4CCC2)cc1 | 138% (inactive) |
| C[C@H](CO)N1C[C@H](C)[C@@H](CN(C)S(=O)(=O)c2cccs2)Oc2c(NC(=O)Nc3ccc4c(c3)OCO4)cccc2C1=O | 96.9% (inactive) |
| Cc1cc(C(=O)NC2CC(C)(C)Cc3c2cnn3-c2cccc(F)c2)n(C)n1 (configuration not stated) | 82.7% (inactive) |
| O=C(Oc1ccc2c(=O)c(Oc3ccc4ccccc4c3)coc2c1)c1cncc(Br)c1 | 90.5% (inactive) |
| COc1ccc(CNC(=O)C(=O)NCC2OCCN2S(=O)(=O)c2ccc(OC)c(OC)c2)cc1 (configuration not stated) | 99.3% (inactive) |
| O=c1[nH]c(C2CCN(S(=O)(=O)c3ccc4c(c3)OCCO4)CC2)nc2c1nnn2Cc1ccc(F)cc1 | 94.5% (inactive) |
| O=c1[nH]c(C2CCN(S(=O)(=O)c3ccc4c(c3)OCCO4)CC2)nc2c1nnn2Cc1cccc(F)c1 | 172% (inactive) |
| CCOc1ccccc1-c1nc(C(N)=O)c2[nH]c(=O)n(-c3ccccc3)c2n1 | 90.8% (inactive) |
| Cc1nn(CC(=O)NCc2cccs2)c(=O)c2nn(-c3ccccc3)c(C)c12 | 99% (inactive) |
| CN(C)CCN(C(=O)c1ccc(S(=O)(=O)N2CCc3ccccc32)cc1)c1nc2ccc(F)cc2s1 | 196% (inactive) |
| O=c1[nH]c(=S)[nH]c(O)c1/C=C1/C=c2ccccc2=N1 | 114% (inactive) |
| O=C(O)CCCN1C(=O)/C(=C\c2ccc(-c3nc4ccccc4s3)o2)SC1=S | 288% (inactive) |
| CCOC(=O)c1ccc(S(=O)(=O)NNS(=O)(=O)c2ccc(C)cc2)cc1 | 112% (inactive) |
| O=S(=O)(Nc1cc(Sc2ncn[nH]2)c(O)c2ccccc12)c1ccccc1 | 140% (inactive) |

| Compound | fluorescence response, % of control |
| --- | --- |
| O=C(c1ccoc1)N1CCC2(CC1)Oc1ccc(F)cc1C(=O)C21CC(c2ccccc2)=NO1 (configuration not stated) | 85.1% (inactive) |
| CC(C)OC(=O)c1ccc(COC(=O)c2cccc(-c3nnc(-c4ccccc4)o3)c2)cc1 | 118% (inactive) |
| COc1ccc2c(-c3ccc(OCCN4CCOCC4)cc3)c(-c3ccccc3OC)sc2c1 | 102% (inactive) |
| COc1ccc(C2CC(c3ccccc3C(F)(F)F)=NN2c2ccc(S(N)(=O)=O)cc2)cc1 (configuration not stated) | 106% (inactive) |
| COc1ccc(CNC(=O)C(C)n2nc(C)c3c(C)n(-c4ccc(C)cc4)nc3c2=O)cc1 (configuration not stated) | 77.9% (inactive) |
| O=C1/C(=C/c2ccc(O)c(O)c2)Oc2cc(O)ccc21 | 426% (inactive) |
| CCSc1cc(N2CCOCC2)nc(-c2ccccc2)n1 | 89.7% (inactive) |
| CCOC(=O)c1ccc(-c2cc(C)no2)[nH]1 | 99.8% (inactive) |
| CCC(=O)NC(c1ccco1)c1cc(Cl)c2cccnc2c1O (configuration not stated) | 99.8% (inactive) |
| O=C1C(Cl)=C(Nc2ccc3cn[nH]c3c2)C(=O)c2ccccc21 | 145% (inactive) |
| CC1(C)Cc2c(sc(NC(=O)COc3ccc(Cl)cc3Cl)c2C(N)=O)C(C)(C)N1 | 86% (inactive) |
| COc1ccc(-c2[nH]c(-c3ccc4c(c3)OCO4)nc2-c2ccccc2)cc1 | 80.8% (inactive) |
| COc1ccc(-c2nc3ccccc3c(=O)n2CCOc2cc(C)ccc2C)cc1 | 135% (inactive) |
| COc1ccc(/C=C2\SC(c3ccc(C)cc3)=NC2=O)cc1OC | 289% (inactive) |
| O=C(Nc1ccc(NC(=O)c2cccs2)cc1)c1ccc2ccccc2c1 | 125% (inactive) |
| COc1cc2c(=O)n(Cc3ccco3)c(=O)n(CC(=O)c3cccc(Br)c3)c2cc1OC | 86.2% (inactive) |

— PubChem BioAssay AID588620 (NMMLSC, 2011)
